“Also recorded” adds a separate entry of the source.
Tests used:
[1] = Vitamin D hormone status: 1,25-(OH)2-D3 level by mass spectrometry in adenine-fed rats; type: in vivo; conditions: versus control-fed animals (FIG. 3)
[2] = tested on: parathyroid hormone (PTH); experiment: Serum intact PTH (iPTH Elisa Kit) in adenine-fed rats treated with vitamin D compounds; type: in vivo; conditions: treated for one week, versus control-fed animals (FIG. 2)
Description: To obtain an animal model of vitamin D deficiency, rats were fed an adenine-rich diet.

[3] = tested on: CYP24; experiment: CYP24 gene expression by real-time PCR in normal and adenine-induced uremic rats dosed with 1,25-dihydroxyvitamin D3; type: in vivo, Sprague-Dawley rats
Protocol: Sprague-Dawley rats were treated i.v. daily with vehicle or 0.5 mcg/kg 1,25-dihydroxyvitamin D3 for 1 week. Organs were collected 24 hours after the last dosing. CYP24 gene expression was determined by real-time PCR.
Sprague-Dawley rats were fed a standard diet (normal) or a uremia-inducing diet containing 0.75% adenine (uremic) for 4 weeks. Animals were then dosed i.v. daily with vehicle or 0.5 mcg/kg 1,25-dihydroxyvitamin D3 for 7 days. Organs were collected 24 hours after the final dosing. CYP24 gene expression was determined by real-time PCR and normalized to GAPDH levels. Relative expression values are normalized to the vehicle-treated group (relative expression=1).
“*” denotes a significant difference in CYP24 expression between vehicle and 1,25-dihydroxyvitamin D3 treatment in normal and uremic rats. “**” represents a significant difference between vehicle-treated normal and uremic rats. “ ? ” denotes significant difference in CYP24 induction levels between normal and uremic rats treated with 1,25-dihydroxyvitamin D3. Significance was set at a p value cutoff of <0.05. Data are presented as mean±SEM. Numerals above each bar signifies relative fold induction to normal-vehicle.
CYP24 and CYP27B1 expression was measured using the same protocol outlined above in Example 6 with respect to FIG. 11. Serum levels of 25(OH)D3 and 1,25-dihydroxyvitamin D3 were measured by LC-MS. Serum PTH was measured by ELISA IMMUTOPICS (San Clemente, Calif., USA) according to manufacturer's instructions. Briefly, serum samples were spiked with [26,27-^2H6] 25(OH)D3 or [25,26-^2H6] 1,25-dihydroxyvitamin D3 and dissolved in acetonitrile to serve as an internal standard. 1,25-dihydroxyvitamin D3 or 25(OH)D3 and internal standards were extracted from serum using Accubond II ODS-C18 100 mg, 1 mL SPE cartridges (Agilent Technologies). The collected fractions were evaporated to dryness under a steady stream of nitrogen gas and the residues reconstituted in 50 μL of methanol/H2O (80/20; v/v) and analyzed using LC-MS/MS (Waters Alliance HPLC—Waters Quattro Ultima mass spectrometer). […]

[4] = Serum 25(OH)D3 by LC-MS in uremic rats treated with 1,25-dihydroxyvitamin D3; type: in vivo, Sprague-Dawley rats; conditions: 0.5 mcg/kg i.v. daily for 7 days (FIG. 12)
Protocol: (§1) CYP24 and CYP27B1 expression was measured using the same protocol outlined above in Example 6 with respect to FIG. 11. Serum levels of 25(OH)D3 and 1,25-dihydroxyvitamin D3 were measured by LC-MS. Serum PTH was measured by ELISA IMMUTOPICS (San Clemente, Calif., USA) according to manufacturer's instructions. Briefly, serum samples were spiked with [26,27-^2H6] 25(OH)D3 or [25,26-^2H6] 1,25-dihydroxyvitamin D3 and dissolved in acetonitrile to serve as an internal standard. 1,25-dihydroxyvitamin D3 or 25(OH)D3 and internal standards were extracted from serum using Accubond II ODS-C18 100 mg, 1 mL SPE cartridges (Agilent Technologies). The collected fractions were evaporated to dryness under a steady stream of nitrogen gas and the residues reconstituted in 50 μL of methanol/H2O (80/20; v/v) and analyzed using LC-MS/MS (Waters Alliance HPLC—Waters Quattro Ultima mass spectrometer). Relative expression values are normalized to the vehicle-treated group (relative expression=1).

[5] = tested on: PTH; experiment: Serum PTH by ELISA in uremic rats treated with 1,25-dihydroxyvitamin D3; type: in vivo, Sprague-Dawley rats; conditions: 0.5 mcg/kg i.v. daily for 7 days (FIG. 12)
Protocol: as §1

[6] = tested on: CYP24; experiment: Kidney CYP24 mRNA (real-time PCR) in vitamin D deficient rats treated with 25-hydroxyvitamin D3; type: in vivo, Sprague Dawley rats; conditions: vitamin D deficient animals after treatment; 0.6, 3 or 18 mcg/kg daily for two weeks (FIG. 17)
Protocol: Sprague Dawley rats were fed either a normal diet or a vitamin D deficient diet for a period of four weeks. Animals were then injected daily for two weeks with either 25-hydroxyvitamin D3 at 0.6, 3, or 18 mcg/kg or vehicle as per the axis label in FIG. 17. Kidneys were collected 24 hours after the last injection and CYP24 mRNA levels were measured by real-time PCR.

[7] = 1,25-dihydroxyvitamin D3 levels in vitamin D deficient uremic versus vitamin D deficient rats dosed with 25-hydroxyvitamin D; type: in vivo; conditions: after dosing for two weeks; vitamin D deficient uremic rats compared to vitamin D deficient animals (FIG. 19)
[8] = tested on: CYP24; experiment: Kidney CYP24 mRNA (real-time PCR) in uremic (adenine) vitamin D deficient rats treated with 25-hydroxyvitamin D3; type: in vivo, Sprague Dawley rats; conditions: uremic vitamin D deficient rats after treatment; 0.6 or 18 mcg/kg daily for two weeks (FIG. 18)
Protocol: Sprague Dawley rats were fed either a normal diet (Adenine Vehicle group) or a vitamin D deficient diet (Vit. D def./Adenine Vehicle group) for a period of four weeks. Following this treatment, animals were orally administered, daily for two weeks, 100 mg of adenine. Animals were then injected daily for another two weeks with either 25-hydroxyvitamin D3 at 0.6 or 18 mcg/kg or vehicle as per the axis label in FIG. 18. Kidneys were collected 24 hours after the last injection and CYP24 mRNA levels were measured by real-time PCR.

[9] = tested on: CYP24; experiment: CYP24 induction (real-time PCR) in HEK cells with 1,25-dihydroxyvitamin D3 alone or with CYP24 inhibitor; type: cell-based; conditions: 10 nM inhibitor with 10 nM 1,25-dihydroxyvitamin D3, 6, 24, 48 and 72 hours (FIG. 14)
Protocol: HEK cells were seeded at 25,000 cells per well (24-well plate) and incubated with 1,25-dihydroxyvitamin D3 (10 nM) alone or with a CYP24 inhibitor (MK-24(S)—S(O)(NH)-Ph-1, see U.S. Pat. No. 7,101,865, compound I(a)) (10 nM) for 6, 24, 48 and 72 hours. Cells were collected and RNA was prepared using TRIZOL® reagent. CYP24 was quantified using real-time PCR.

[10] = tested on: HEK cells; experiment: [3H]-thymidine incorporation in HEK cells, 1,25-dihydroxyvitamin D3 with CYP24 inhibitor; type: cell-based; conditions: cultured HEK cells, inhibitor at 0, 1, 10 and 50 nM (FIG. 15)
Protocol: HEK cells were transferred into 96-well plates at 2000 cells/well density. After 2 days of growth in 96-well plates the cells were treated with 1,25-dihydroxyvitamin D3 at the final concentrations 10^−6-10^−11 M in combination with the MK-24(S)—S(O)(NH)-Ph-1 compound with the varied final concentration of 0, 1, 10 and 50 nM. After overnight treatment [^3H]-thymidine was added to cells, […]/well in KGM media for 16 h. The radioactivity incorporation was counted using a scintillation counter after the addition of […] of scintillation fluid. The data were represented as an incorporation of thymidine in cpm depending on 1,25-dihydroxyvitamin D3 concentration. Each data point represents at least 4 independent trials.

[11] = tested on: CYP24; experiment: CYP24 RNA expression in HPK1a-ras cells, 1,25-dihydroxyvitamin D3 with or without FGF23; type: cell-based; conditions: 100 ng/mL FGF23 with 0, 1, 10, 100 nM calcitriol, after 8 hours (FIG. 16)
Protocol: HPK1a-ras cells were treated with 0, 1, 10, and 100 nM of 1,25-dihydroxyvitamin D3 (calcitriol), with or without 100 ng/mL of FGF23, and CYP24 RNA expression was measured after 8 hours.

C=C1/C(=C\C=C2/CCC[C@]3(C)[C@@H]([C@H](C)/C=C/[C@H](C)C(C)(C)O)CC[C@@H]23)C[C@@H](O)C[C@@H]1O [1,25-(OH)2-D2, 1,25-dihydroxyvitamin D2]
1,25-(OH)2-D3 levels (vitamin D hormone status) [1]: did not significantly affect | iPTH level [2]: restored to a level similar to control-fed animals

C=C1/C(=C\C=C2/CCC[C@]3(C)[C@@H]([C@H](C)CCCC(C)(C)O)CC[C@@H]23)C[C@@H](O)C[C@@H]1O [1,25-(OH)2-D3, 1,25-dihydroxyvitamin D3]
1,25-(OH)2-D3 levels (vitamin D hormone status) [1]: restored to the level of control-fed animals | induced expression of CYP24 ([3]; parathyroid gland, uremic compared to normal animals, 0.5 mcg/kg i.v. daily for 7 days (FIG. 11)): significantly induced; also recorded: markedly greater | CYP24 gene expression ([3]; tissues from both normal and uremic rats, 0.5 mcg/kg i.v. daily): strongly induced | CYP24 expression ([3]; uremic rats, 0.5 mcg/kg i.v. daily for 7 days (FIG. 12)): drastically induces | serum 25-(OH)D3 levels [4]: reduction | PTH [5]: reduction | iPTH level [2]: restored to a level similar to control-fed animals

C=C1CC[C@H](O)C/C1=C/C=C1\CCC[C@]2(C)[C@@H]([C@H](C)CCCC(C)(C)O)CC[C@@H]12 [25-OH-D3, 25-hydroxyvitamin D3]
1,25-(OH)2-D3 levels (vitamin D hormone status) [1]: did not significantly affect | CYP24 levels [6]: increase to normal or higher levels | levels of 1,25-dihydroxyvitamin D3 [7]: lower | CYP24 levels [8]: do not increase | iPTH level [2]: restored to a level similar to control-fed animals

C=C1/C(=C\C=C2/CCC[C@]3(C)[C@@H]([C@H](C)CCC[S@](=N)(=O)c4ccccc4)CC[C@@H]23)C[C@@H](O)C[C@@H]1O [MK-24(S)—S(O)(NH)-Ph-1, (5Z,7E)-(1S,3R)-24-(S)-phenylsulfoximine-25-nor-9,10-seco-5,7,10(19)-cholestatriene-1,3-diol]
CYP24 induction by 1,25-dihydroxyvitamin D3 in the presence of CYP24 inhibitor [9]: markedly extended | enhancement of the anti-proliferative effects of 1,25-dihydroxyvitamin D3 [10]: approximately 3 orders of magnitude

B1: FGF23: fibroblast growth factor-23 (protein, UniProt Q9GZV9 25-251, looked up)
Fibroblast growth factor 23: YPNASPLLGSSWGGLIHLYTATARNSYHLQIHKNGHVDGAPHQTIYSALMIRSEDAGFVVITGVMSRRYLCMDFRGNIFGSHYFDPENCRFQHQTLENGYDVYHSPQYHFLVSLGRAKRAFLPGMNPPPYSQFLSRRNEIPLIHFNTPIPRRHTRSAEDDSERDPLNVLKPRARMTPAPASCSQELPSAEDNSPMASDPLGVVRGGRVNTHAGGTGPEGCRPFAKFI
CYP24 RNA production, effect with 1,25-dihydroxyvitamin D3 [11]: synergizes
